“Also recorded” adds a separate entry of the source.
How the values were obtained:
HSV-1 [1] = assay: Fractionation and in situ localization of virus DNA; format: cell-based, HSV-1 Glasgow strain 17
HSV-1 [2] = assay: Virus entry assay, αTIF immunofluorescence; format: cell-based, HSV-1 Glasgow strain 17
Procedure: (i) αTIF immunofluorescence. […] Pre-warmed media (37° C.) was added to each plate, incubated at 37° C. for the indicated times and washed twice with ice cold PBS on ice. The infected cells were fixed in 3.7% formaldehyde in PBS for 30 min at room temperature and washed with PBS. The fixed monolayers were permeabilized in −20° C. acetone at −20° C. for 10 min. Cells were washed with water and then PBS. Fixed cells were incubated in 10% normal goat serum (NGS; Roche, Indianapolis, Ind.) in 0.1% Tween 20 in PBS (PBST) for 20 min at RT and washed twice with PBST. Cover slips were then incubated in PBST containing 1% NGS and 1:200 polyclonal antibody anti-VP16 antibody (Clontech Laboratories, Inc.) for 30 min and washed 6 times with PBST. The infected cell monolayers were then incubated in PBST containing 1% NGS and 1:200 goat anti-rabbit IgG antibody conjugated to fluorescein isothiocyanate (FITC; Kirkegaard and Perry Laboratories, Inc.) for 30 min and washed 6 times with PBST. The cover slips were then mounted on slides in gel/mount solution (Biomeda, Fisher, Springfield, N.J.) and viewed with a 100× lens of a Zeiss LSM 4100 confocal laser scanning system attached to a Zeiss Axiovert 100TV inverted microscope. Each image is the average of 1 μm Z series.
There are several approaches to assessing the ability of virus to adsorb and enter a cell. […]

HSV-1 [3] = format: cell-based, HSV-1 Glasgow strain 17; conditions: CTC-96 added at 16 hpi, virus harvested 4 hours later
Ad-CMV-null = assay: Fluorescence focus assay, AdCMV-null on 293T cells; format: cell-based, adenovirus
Procedure: A549 or 293 cell monolayers were infected with Ad2 or Ad-CMV-null at 0.1 fluorescence focus units (FFUs) per cell for 2 h in 2% BCS DMEM in the presence and absence of 50 μg/ml CTC-96. At 29 h postinfection the plates were washed twice with PBS and fixed with methanol for 4 min at room temperature. Cells were washed twice with PBS, incubated in 500 μl 1:100 rabbit polyclonal anti-adenovirus serum in PBS for 30 min at room temperature and washed with PBS. Plates were then incubated in 500 μl 1:40 goat anti-rabbit IgG conjugated FITC in PBS. Foci were visualized using a Leitz Dialux microscope with an optical system for the selective visualization of FITC and then counted.
293T cells were plated on 35 mm dishes. Cells should be @5×10^6 cells/plate.
293T Cells were infected with AdCMV-null @ moi=0.1 (i.e. 0.1 FFU/cell)
virus was diluted in D2 media +/− 50 μg/ml CTC96 D2=2% serum DMEM
Plates were overlaid with 2.5 ml D2 +/− 50 μg/ml CTC96 and incub. @37° C. for 28 h (total)

Hela cells = conditions: 100 μg/ml, 2 days
HSV-1 [4] = assay: Adsorption assay, 3H labeled HSV-1 binding to Vero cells; conditions: 50 μg/ml, 4° C., MOI 100

Compound: CC(/C=C(/C)[O-])=NCCN=C(C)/C=C(/C)[O-].Cc1ncc[nH]1.Cc1ncc[nH]1.[Br-].[Co+3] [CTC-96]
- nuclear accumulation of 3H labeled HSV-1 DNA (autoradiography) (HSV-1 [1]): prevented the nuclear accumulation
- virus DNA in nuclear and cytoplasmic fractions (HSV-1 [1]): very little detectable virus DNA in either fraction; also recorded: no significant increase in nuclear associated HSV-1 specific DNA
- virus entry / nuclear accumulation of αTIF (HSV-1 [2]; 50 μg/ml, MOI 100, 30-60 min after shift to 37° C.): no evidence for virus entering the cell; also recorded: unable to accumulate in the nucleus; also recorded: prevented nuclear accumulation
- virus bound to cells (HSV-1 [2]; 5 min after shift up to 37° C.): less virus bound
- virus titers (HSV-1 [3]): negligible drop in virus titers
- adenovirus foci (Ad-CMV-null; 50 μg/ml, 293T cells, AdCMV-null moi 0.1, 28 h): NO FOCI ON EITHER PLATE
- % Inhibition (Ad-CMV-null; Ad-CMV-null, 293T, 50 μg/ml of CTC-96, fluorescence focus assay): 100%
- state of the HeLa cells (Hela cells): dead
- adsorption (binding) of HSV-1 to Vero cell monolayers (HSV-1 [4]): no effect

— US6756368B1, “Use of cobalt chelates for treating or preventing virus infection” (The Trustees of Columbia University in the City of New York, priority 1999, dated 2004)
